Assay results taken from ChEMBL document CHEMBL1149799, “Bioactive peroxides as potential therapeutic agents” (Eur J Med Chem, 2008).
Converted amounts (≈) assume the structure as drawn. The source made the active and inactive calls. The rule behind the calls is not given here.

Experiments:
PC-3 = assay: Cytotoxicity against human PC3 cells; assay type: functional, cell-based
[1] = Cytotoxicity against human HERP3B cells; assay type: functional
P388 [2] = assay: Cytotoxicity against mouse P388 cells; assay type: functional, cell-based; conditions: Mus musculus, P388
A549 = assay: Cytotoxicity against human A549 cells; assay type: functional, cell-based; conditions: Homo sapiens, A549
Human alphaherpesvirus 1 = assay: Antiviral activity against herpes simplex virus type-1; assay type: functional, organism-based
[3] = test system: Vesicular stomatitis virus; assay: Antiviral activity against Vesicular stomatitis virus; assay type: functional, organism-based
HT-29 = assay: Cytotoxicity against human HT29 cells; assay type: functional, cell-based; conditions: Homo sapiens, HT-29
[4] = Cytotoxicity against mouse B16-F1cells; assay type: functional, cell-based; conditions: B16-F1
[5] = Cytotoxicity against human MAXF401NL cells; assay type: functional, cell-based; conditions: MAXF 401NL
[6] = Cytotoxicity against human GXF251L cells; assay type: functional, cell-based; conditions: GXF 251L
[7] = Cytotoxicity against human UXF1138L cells; assay type: functional, cell-based; conditions: UXF 1138L
[8] = Cytotoxicity against human LXF529L cells; assay type: functional, cell-based; conditions: LXF 529L
[9] = Cytotoxicity against human RXF486L cells; assay type: functional, cell-based; conditions: RXF 486L
[10] = Cytotoxicity against human MAXF642NL cells; assay type: functional, cell-based
[11] = Cytotoxicity against human P833 cells; assay type: functional, cell-based
[12] = Inhibition of human SKW3 cells adhesion to soluble ICAM1; assay type: functional, cell-based
P388 [13] = assay: Cytotoxicity against mouse P388 cells at 0.5 ug/mL; assay type: functional
HCT-8 = assay: Cytotoxicity against human HCT8 cells at 10 ug/mL; assay type: functional
[14] = target: Protein kinase C epsilon type (Homo sapiens) (UniProt Q02156); assay: Agonist activity at protein kinase C epsilon at 50 pg/mL; assay type: functional
Chain of Protein kinase C epsilon type (Homo sapiens) (Q02156 whole entry): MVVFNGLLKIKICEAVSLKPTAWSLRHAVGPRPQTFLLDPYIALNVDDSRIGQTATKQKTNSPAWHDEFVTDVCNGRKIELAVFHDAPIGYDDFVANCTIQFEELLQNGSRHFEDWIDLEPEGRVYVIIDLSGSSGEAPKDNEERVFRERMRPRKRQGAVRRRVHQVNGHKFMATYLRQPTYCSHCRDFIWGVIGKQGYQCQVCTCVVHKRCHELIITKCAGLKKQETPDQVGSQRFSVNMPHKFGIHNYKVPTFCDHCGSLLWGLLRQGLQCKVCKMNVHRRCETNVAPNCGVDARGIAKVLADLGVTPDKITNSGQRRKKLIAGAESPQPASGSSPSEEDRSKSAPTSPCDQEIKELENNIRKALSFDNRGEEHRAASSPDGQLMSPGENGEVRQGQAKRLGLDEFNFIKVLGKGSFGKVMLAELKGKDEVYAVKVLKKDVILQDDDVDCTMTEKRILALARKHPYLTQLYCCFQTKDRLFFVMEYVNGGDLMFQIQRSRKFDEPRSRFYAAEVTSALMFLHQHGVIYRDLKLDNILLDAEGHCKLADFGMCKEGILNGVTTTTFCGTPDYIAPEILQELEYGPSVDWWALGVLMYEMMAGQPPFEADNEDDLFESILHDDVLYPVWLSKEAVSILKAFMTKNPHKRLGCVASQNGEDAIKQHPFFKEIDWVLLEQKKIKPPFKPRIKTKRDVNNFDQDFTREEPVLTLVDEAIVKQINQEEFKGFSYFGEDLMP

[15] = target: Protein kinase C beta type (Homo sapiens) (UniProt P05771); assay: Agonist activity at protein kinase C beta2 at 50 pg/mL; assay type: functional
Chain of Protein kinase C beta type (Homo sapiens) (P05771 2-671 limits assumed): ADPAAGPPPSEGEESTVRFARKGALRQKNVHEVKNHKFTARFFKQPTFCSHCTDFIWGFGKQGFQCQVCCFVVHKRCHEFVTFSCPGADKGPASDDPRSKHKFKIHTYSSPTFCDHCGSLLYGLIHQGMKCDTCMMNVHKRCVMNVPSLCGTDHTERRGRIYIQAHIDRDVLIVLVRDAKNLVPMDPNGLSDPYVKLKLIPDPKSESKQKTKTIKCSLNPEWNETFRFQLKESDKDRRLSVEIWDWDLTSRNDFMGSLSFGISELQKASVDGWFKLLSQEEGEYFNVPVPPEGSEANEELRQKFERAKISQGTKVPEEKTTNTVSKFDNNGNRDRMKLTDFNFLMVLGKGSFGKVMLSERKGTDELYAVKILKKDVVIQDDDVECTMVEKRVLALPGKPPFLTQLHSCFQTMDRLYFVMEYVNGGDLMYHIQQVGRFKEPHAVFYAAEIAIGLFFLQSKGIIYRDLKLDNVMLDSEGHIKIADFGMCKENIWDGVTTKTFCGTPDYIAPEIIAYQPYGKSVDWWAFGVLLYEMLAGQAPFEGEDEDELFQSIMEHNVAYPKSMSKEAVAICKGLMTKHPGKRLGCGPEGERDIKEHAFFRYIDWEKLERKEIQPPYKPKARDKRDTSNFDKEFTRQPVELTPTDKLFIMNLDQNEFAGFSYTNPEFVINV

[16] = target: Protein kinase C delta type (Homo sapiens) (UniProt Q05655); assay: Agonist activity at protein kinase C delta at 50 pg/mL; assay type: functional
Chain of Protein kinase C delta type (Homo sapiens) (Q05655 whole entry, looked up): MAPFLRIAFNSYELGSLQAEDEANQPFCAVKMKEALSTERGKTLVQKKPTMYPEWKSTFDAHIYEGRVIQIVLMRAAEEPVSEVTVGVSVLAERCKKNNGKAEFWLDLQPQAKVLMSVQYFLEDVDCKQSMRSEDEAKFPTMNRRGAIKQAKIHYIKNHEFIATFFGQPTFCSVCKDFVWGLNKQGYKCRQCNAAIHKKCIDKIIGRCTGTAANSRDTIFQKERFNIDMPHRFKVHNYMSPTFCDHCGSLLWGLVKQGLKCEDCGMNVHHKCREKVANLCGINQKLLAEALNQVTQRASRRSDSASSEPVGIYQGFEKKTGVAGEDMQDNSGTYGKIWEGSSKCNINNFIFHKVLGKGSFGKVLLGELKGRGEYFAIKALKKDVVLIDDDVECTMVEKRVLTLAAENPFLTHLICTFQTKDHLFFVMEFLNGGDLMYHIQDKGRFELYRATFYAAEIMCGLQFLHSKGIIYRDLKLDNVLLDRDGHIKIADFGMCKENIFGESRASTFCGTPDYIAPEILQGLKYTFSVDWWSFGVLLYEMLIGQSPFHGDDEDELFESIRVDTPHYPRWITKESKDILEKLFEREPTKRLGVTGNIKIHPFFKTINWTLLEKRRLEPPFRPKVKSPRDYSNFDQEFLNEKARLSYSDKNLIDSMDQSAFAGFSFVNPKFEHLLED

[17] = target: Protein kinase C gamma type (Homo sapiens, UniProt P05129); assay: Agonist activity at protein kinase C gamma at 50 pg/mL; assay type: functional
[18] = target: Protein kinase C alpha type (Homo sapiens) (UniProt P17252); assay: Agonist activity at protein kinase C alpha at 50 pg/mL; assay type: functional
[19] = target: Protein kinase C beta type (Homo sapiens) (UniProt P05771); assay: Agonist activity at protein kinase C beta-1 at 50 pg/mL; assay type: functional
MCF7 = assay: Cytotoxicity against human MCF7 cells; assay type: functional, cell-based; conditions: Homo sapiens, MCF7
HeLa = assay: Cytotoxicity against human HeLa cells; assay type: functional, cell-based
SF-268 [20] = assay: Cytotoxicity against human SF268 cells; assay type: functional, cell-based
MIA PaCa-2 = assay: Cytotoxicity against human MIA-PaCa2 cells
NCI-H460 = assay: Cytotoxicity against human NCI-H460 cells; assay type: functional, cell-based; conditions: Homo sapiens, NCI-H460
SF-268 [21] = assay: Cytotoxicity against human SF268 cells at 30 uM; assay type: functional, cell-based

CCOc1ccc(OOc2ccc(OCC)c3cc4c(cc23)[C@]2(C)CCC(=O)c3coc(c32)C4=O)c2cc3c(cc12)[C@@]1(C)CCC(=O)c2coc(c21)C3=O
Activity (PC-3): 35 | Activity [1]: 5

C[C@H](C(=O)O)[C@@H]1CC[C@@](C)(CC[C@@]2(O)[C@H](C)CC[C@@]3(C)C(C)(C)CCC[C@]23C)OO1 [MYCAPEROXIDE B]
IC50 (P388 [2]): 0.5 µg/mL (≈ 1.18 µM) | IC50 (A549): 0.5 µg/mL (≈ 1.18 µM) | IC50 (Human alphaherpesvirus 1): 0.25 µg/mL (≈ 0.589 µM) | IC50 [3]: 0.25 µg/mL (≈ 0.589 µM) | IC50 (HT-29): 0.5 µg/mL (≈ 1.18 µM)

COC(=O)C[C@H]1OO[C@](C)(C/C(C)=C/C=C/Cc2ccccc2)C[C@H]1C [CAPUCINOATE A]
IC50 [4]: 0.012 µg/mL (≈ 0.0335 µM)

CC(=O)O[C@H]1C(=O)[C@@]2(C)[C@H]([C@H](OC(=O)c3ccccc3)[C@]3(O)C[C@H](OC(=O)[C@H](O)[C@@H](NC(=O)c4ccccc4)c4ccccc4)C(C)=C1C3(C)C)[C@]1(OC(C)=O)CO[C@@H]1C[C@@H]2O [PACLITAXEL]
Activity (PC-3): 80 | Activity [1]: 85

CCCCC[C@@]1(CC)C=C(CC)[C@@H](CC(=O)OC)OO1
IC50 [5]: > 10 µg/mL | IC50 [6]: > 10 µg/mL | IC50 [7]: > 10 µg/mL | IC50 [8]: > 10 µg/mL | IC50 [9]: > 10 µg/mL | IC50 [10]: > 10 µg/mL

CCCC[C@H](CC)C[C@]1(CC)C=C(CC)[C@H](CC(=O)O)OO1 [HATERUMADIOXIN B]
IC50 [11]: 0.0055 µg/mL (≈ 0.0176 µM)

Cc1ccc2c(c1O)C(=O)c1c(cc(O)c(C(=O)O)c1C)[C@]2(C)OO[C@@]1(C)c2cc(O[C@H]3O[C@@H](CO)[C@@H](O)[C@@H](O[C@@H]4O[C@H](CO)[C@H](O)[C@H](O)[C@H]4O)[C@@H]3O)c(C(=O)O)c(C)c2C(=O)c2c1ccc(C)c2O [ADXANTHROMYCIN B]
IC50 [12]: 25 µg/mL (≈ 25.5 µM)

CCCCCCCCCCCCCCCC[C@]1(C)C[C@](C)(CC(=O)O)OO1
inhibition at 0.5 µg/mL (P388 [13]): 90% | inhibition at 10 µg/mL (HCT-8): 90%

CC/C=C/[C@H](CC)C[C@]1(CC)C=C(CC)[C@H](CC(=O)O)OO1 [HATERUMADIOXIN A]
IC50 [11]: 0.011 µg/mL (≈ 0.0354 µM)

CC(CCCCCCCCc1ccccc1)C[C@]1(C)C[C@]2(C)OC(=O)C[C@@H]2OO1 (stereo partly drawn)
Activity [14]: 38% | Activity [15]: 27% | Activity [16]: 9% | Activity [17]: 9% | Activity [18]: 19% | Activity [19]: 13%

CC(=C/C(=O)O)/C=C/C=C(\C)[C@@H]1C=C2C(C)(C)CCC[C@]2(C)OO1
IC50 (MCF7): 2.7 µg/mL (≈ 8.12 µM) | IC50 (HeLa): 2 µg/mL (≈ 6.02 µM) | IC50 (SF-268 [20]; Homo sapiens, SF-268, read-out: IC50): 3.5 µg/mL (≈ 10.5 µM) | IC50 (MIA PaCa-2): 1.7 µg/mL (≈ 5.11 µM) | IC50 (NCI-H460): 2.1 µg/mL (≈ 6.32 µM)

CC(=C/C(=O)O)/C=C/C=C(C)/C=C/[C@@H]1C=C2C(C)(C)CCC[C@]2(C)OO1
IC50 (MCF7): 21.9 µg/mL (≈ 61.1 µM) | Activity (SF-268 [21]): inactive | IC50 (HeLa): 19.8 µg/mL (≈ 55.2 µM) | IC50 (SF-268 [20]; sf-268): Not Active | IC50 (MIA PaCa-2): 13.9 µg/mL (≈ 38.8 µM) | IC50 (NCI-H460): 21 µg/mL (≈ 58.6 µM)
